Columns and labels:
[1] = Radical Eliminating Effect Test (DPPH); type: biochemical; conditions: 10 μM sample compound, 0.1 mM DPPH, pH 5.5, 30 minutes, room temperature
Description: Radical Eliminating Effect Test (DPPH)
Radical-eliminating ability of a sample drug is studied in terms of its reaction amount and reactivity with respect to α, α-diphenyl-β-picrylhydrazyl (DPPH) which is a stable radical.
Method of Uchiyama et al. (Japanese Journal of Pharmacology, vol. 88, pp. 678-683, 1968) was used. Namely, to a solution containing 20 mM acetic acid buffer (pH 5.5), 60% ethanol, and 10 μM of a sample compound, DPPH was added so as to yield a concentration of 0.1 mM. The resulting mixture was stirred and then its change in absorbance (ABS) at 517 nm was measured for 30 minutes at room temperature. Here, the sample compound was used as being dissolved in dimethylsulfoxide (DMSO). While the final concentration of DMSO was 10%, no influence upon the present system was observed.
The DPPH reducing ratio of the sample compound at the concentration of 10 μM was calculated by the following equation:
reducing ratio (%)={1-(ABS after 30 minutes/initial ABS)}×100

rat brain homogenate = assay: Lipid Peroxidation Inhibition Test; type: biochemical, rat (SD-line male); conditions: 1 μM sample compound, pH 7.4, 1 hour at 37° C., TBA method
Text: Lipid Peroxidation Inhibition Test
In an automatic oxidation system using a rat brain homogenate, whether a sample compound having a radical-eliminating effect can actually have a lipid peroxidation inhibitory activity or not is investigated and its effectiveness is comparatively studied.
With reference to method of Shimamoto et. al. (Clinical Study of Free Radical, vol. 1, pp. 91-95, 1987), the following method was used. An SD-line male rat (7-week-old) was bled to death with a physiological saline perfusion under pentobarbital anesthesia. Then, its hemisphaerium cerebri was taken out and, while being cooled with ice, a 19-fold amount of 20 mM phosphoric acid buffer (pH 7.4) was added thereto. The resulting mixture was homogenized. To this mixture, 1 μM of the sample compound was added. After the resulting mixture was incubated for 1 hour at 37° C., the amount of generated lipid peroxide was determined by TBA method. Namely, to 0.2 ml of the homogenate, 0.2 ml of 8.1% SDS, 1.5 ml of 20% acetic acid buffer (pH 3.5), and 1.5 ml of 0.8% TBA reagent were added. The resulting mixture was incubated for 1 hour at 95° C. and then rapidly cooled with ice. Subsequently, 1 ml of distilled water and 5 ml of n-butanol/pyridine mixed solution (15:1, v/v) were added thereto and the mixture was stirred. After the mixture was centrifuged, the butanol layer was collected therefrom and its absorbance (a) at 535 nm was measured as compared with a blank. Also, as a reference liquid, a 10 μM solution of 1,1,3,3-tetraethoxypropane (TEP) was added in place of the brain homogenate and its absorbance (A) was measured in a similar manner. In the blank, a phosphoric acid buffer was used in place of the brain homogenate. The peroxide concentration was calculated by the following equation and defined as the brain lipid peroxide amount: […]
peroxide concentration (nmol/g wet weight)=a/A×100
The sample compound was used as being dissolved in dimethylsulfoxide (DMSO). While the final concentration of DMSO was 2%, no influence upon the present system was observed.
The lipid peroxidation inhibitory rate of the sample compound at the concentration of 1 μM was calculated from the amount of increase in lipid peroxide in solvent-added group (M) and that in sample compound added group (m): […]
lipid peroxidation inhibitory rate (%)={1-(m/M)}×100

[2] = test system: MCA infarction reperfusion model; assay: Brain Edema Inhibition Test (MCA infarction reperfusion model); type: in vivo, rat (Fischer); conditions: dose was 100 mg/kg; i.p. 20 minutes before reperfusion; two-hour ischemia and two-hour reperfusion; brain moisture content
Text: Brain Edema Inhibition Test
The brain edema inhibitory activity in vivo is confirmed. According to this test, it can be judged whether the peripherally administered sample compound can pass through the blood-brain barrier or not.
By using a 7 to 9-week-old Fischer rat (Charles River Japan Inc.), an MCA infarction reperfusion model was formed according to method of Koizumi et al. (Japanese Journal of Stroke, vol. 8, pp. 1-8, 1986). Namely, the rat was fixed face-up position under anesthesia with 2% halothane and then its neck portion was subjected to median incision so as to separate the right common carotid artery therefrom to the carotid artery branching portion while carefully keeping the vagus nerve. The outer carotid artery and inner carotid artery around the carotid artery branching portion were separated from their surrounding connecting tissues. Then, the common carotid artery and outer carotid artery were ligated with a silk string. Further, the inner carotid artery starting portion was surrounded by a silk string so as to be ready for ligation and fixation which would be effected after insertion of an embolus string. Then, the common carotid artery was incised and, from there, an embolus string was inserted toward the inner carotid artery by about 15 to 16 mm and then ligated and fixed to the inner carotid artery with the above mentioned silk string. As a result of the foregoing operation, the tip of the embolus string proceeded beyond the MCA branching portion so as to enter the anterior cerebral artery by about 1 to 2 mm and formed infarction at the MCA inlet by the body portion of the embolus string. After the embolus string blocking the MCA starting portion was left for a predetermined time, it was pulled out under halothane anesthesia to effect reperfusion. Here, in this model, since the right common carotid artery has been ligated, the blood flow is supposed to be restarted from the left inner carotid artery and vertebral-basilar by way of the anterior and posterior communicating arteries. This experiment effected two-hour ischemia and two-hour reperfusion.
Here, the embolus string was prepared in the following manner. Namely, a tip of a 4-0 surgical nylon string having a total length of 16 mm was held over an alcohol lamp so as to form a ball with a diameter of 0.2 to 0.3 mm and then a length of about 5 mm on the nearer side therefrom was coated with a dental impression material with reference to the size of the ball, thereby forming the embolus string.
The brain moisture content was measured by wet and dry weight method. […] Further, after being dried at 110° C. for 24 hours, their weight was measured again to yield dry weight. From thus obtained wet weight and dry weight, the brain moisture content was determined by the following equation: […]

[3] = test system: middle cerebral artery (MCA) infarction model; assay: Brain Infarction Inhibition Test (MCA infarction model); type: in vivo, rat (Crj:Fischer-344 line male); conditions: for Brain infarction inhibitory ratio: dose was 100 mg/kg, 2 hours ischemia, 2 hours reperfusion, i.p. 20 minutes before or i.v. simultaneously with reperfusion, * p < 0.05
Description: Brain Infarction Inhibition Test i) Meaning The brain infarction inhibitory activity in vivo is studied. According to this test, it can be judged whether the peripherally administered sample compound can pass through the blood-brain barrier or not. ii) Method For the experiment, 9 to 10-week-old Crj:Fischer-344 line male rats were used. Each of all the soluble sample compounds was dissolved in a physiological saline and then administered intravenously or intraperitoneally. Each of insoluble ones was suspended in a physiological saline containing 0.1% Tween 80 and administered intraperitoneally. Also, those dissolved in a physiological saline containing 0.5% Tween 80 were used for intravenous administration. The intraperitoneal administration was effected 20 minutes before reperfusion, whereas the intravenous administration was effected simultaneously with reperfusion. As a control, only the base was administered. The surgical operation was effected in a manner similar to method of Koizumi et al. (Japanese Journal of Stroke, vol. 8, pp. 1-8, 1986) so as to form a middle cerebral artery (MCA) infarction model. Namely, the rat was subjected to inhalation anesthesia with 4% halothane and then, while the anesthesia was maintained with 1% halothane, fixed on face-up position. The neck portion was subjected to median incision such that the common carotid artery and outer carotid artery around the right carotid artery branching portion were separated from their surrounding connecting tissues and then ligated with a silk string. Further, the inner carotid artery starting portion was surrounded by a silk string so as to be ready for ligation and fixation which would be effected after insertion of an embolus. Then, the common carotid artery was incised and, from there, an embolus having a length of about 16 mm, in which a 4-0 surgical nylon string had been coated with a dental impression material, was inserted toward the inner carotid artery and its end near the nylon string was ligated and fixed to the inner carotid artery with the above mentioned silk string. Also, during the surgical operation, the body temperature was maintained by a small animal body temperature control apparatus in order to prevent it from lowering upon the whole anesthesia processes. According to the foregoing operation, brain ischemia was effected for 2 hours and then the embolus was pulled out so as to effect reperfusion. The brain was taken out two hours after the reperfusion and then 4 pieces of crown-like separated strips were prepared by 2-mm intervals from the lambda level toward the downstream. These strips were immersed in 2% triphenyltetrazorium chloride (TTC) solution and incubated at 37° C., for 10 minutes. Thus dyed brain strips were immersed in a phosphate-buffered 8% formalin solution for 1 to 2 days and then photographed under a stereo-microscope ([…]). Thereafter, for each crown-like strip, the area of infarction region was measured by Planimeter ([…]) Judgment Standard The effects of the sample compound were represented by its individual inhibitory rate (%) which used the total area of the infarction regions, which had not been dyed with TTC in the 4 strips. The significance test was effected by student t-test. individual inhibitory rate(%)={1-(value in sample group/value in control group)}×100

Row | SMILES | DPPH reducing ratio [1] | Lipid peroxidation inhibitory ratio (rat brain homogenate) | Brain edema inhibitory ratio [2] | Brain infarction inhibitory ratio [3] | brain infarction inhibition activity, in words ([3]; rat, in vivo)
1 | CC(C)Cc1cc(C(=S)Nc2ccc(N(C)C)cc2)ccc1O [Example 14] | 18.3% | 33.9% |  |  | 
2 | CC(C)Cc1cccc(CC(=O)Nc2ccc(N(C)C)cc2)c1O [Example 17] | 18.7% | 10.4% |  |  | 
3 | CC(C)Cc1cc(C(=O)Nc2ccc(N(C)C)cc2)ccc1O [Example 1] | 22.9% | 40.1% | 2.0% | 53.0% | 
4 | COc1ccc(C(=O)Nc2ccc(N(C)C)cc2)cc1CC(C)C [Example 7] | 20.7% | 48.9% |  |  | 
5 | CC(C)Cc1cc(S(=O)(=O)Nc2ccc(N(C)C)cc2)ccc1O [Example 12] | 61.8% | 24.2% |  | 0.7% | 
6 | CC(C)Cc1cc(S(=O)(=O)Nc2ccc(N(C)C)cc2)ccc1OC(=O)c1ccccc1 [Example 13] | 58.9% | 13.4% |  |  | 
7 | CC(C)Cc1ccc(O)c(C(=O)Nc2ccc(N(C)C)cc2)c1 [Example 2] | 17.7% | 26.8% |  | 41.2% | 
8 | CC(C)Cc1cc(CC(=O)Nc2ccc(N(C)C)cc2)ccc1O [Example 16] | 21.0% | 14.4% |  |  | 
9 | CC(C)Cc1cc(CC(=O)Nc2ccc(N(C)C)cc2)ccc1OCc1ccccc1 [Example 15] | 12.8% | 24.8% |  | 2.8% | 
10 | COc1ccc(COc2ccc(C(=O)Nc3ccc(N(C)C)cc3)cc2CC(C)C)cc1 [Example 6] | 25.1% | 41.7% | 1.5% |  | 
11 | CC(C)=CCC/C(C)=C/COc1ccc(C(=O)Nc2ccc(N(C)C)cc2)cc1CC(C)C [Example 8] | 21.2% | 41.7% |  |  | 
12 | CC(C)Cc1ccc(C(=O)Nc2ccc(N(C)C)cc2)cc1O [Example 4] | 16.4% | 13.5% |  |  | 
13 | CC(C)Cc1cc(C(=O)Nc2ccc(N(C)C)cc2)ccc1OCc1ccccc1 [Example 9] | 25.5% | 28.1% | 19.2% | 39.9% | 
14 | CC(C)Cc1cccc(C(=O)Nc2ccc(N(C)C)cc2)c1OCc1ccccc1 [Example 10] | 11.5% | 28.2% |  | 18.7% | showed brain infarction inhibition tendency
15 | CC(C)Cc1cccc(C(=O)Nc2ccc(N(C)C)cc2)c1O [Example 3] | 22.5% | 22.7% |  |  | 
16 | CC(C)Cc1nccc(C(=O)Nc2ccc(N(C)C)cc2)c1O [Example 5] | 16.1% | 29.5% | 38.1% | 19.0% | 

Source: patent US6083987A, “Phenylenediamine derivative, radical scavenger, brain-infarction depressant, and brain-edema depressant” (Shiseido Co., Ltd., priority 1998, dated 2000)
